Test results published in article PMC5798851, “The structure of FIV reverse transcriptase and its implications for non-nucleoside inhibitor resistance” (PLoS Pathogens, 2018).
Where two headings read alike, the source gives them in different places.

Key:
[1] = molecular target: T1, mutated fRT (FIVm) (Feline immunodeficiency virus, UniProt P16088, A293E/G294T/K290I/R289S/R297I); assay: DNA-dependent DNA polymerization activity assay, mutant FIV RT; type: biochemical, feline immunodeficiency virus (FIV); conditions: 0.15 μM RT, 30 minutes at 37°C
T1 construct: The p66 subunit (residues 1–554) was cloned into pET22b; p51 subunit (residues 1–430) in pET28b (kan resistance, Novagen) with a thrombin-cleavable His-tag at the N-terminus; His-tag (thrombin-cleavable) (N, cleaved yes); made in house; host or cells: E. coli ArcticExpress
Method: (§1) DNA-dependent DNA polymerization activity of RT enzymes was assessed using a DNA primer/template prepared by annealing of 70-mer ssDNA template with a complementary 25-mer ssDNA primer labeled with 6-FAM at 5’-end (Integrated DNA Technologies).
Reaction mixtures contained 100 mM Tris-HCl pH 7.5, 75 mM KCl, 0.5 mM dNTP mixture, 60 mM MgCl2, 5 mM DTT and 0.15 μM RT, 0.5 μM DNA substrate. Reactions were incubated for 30 minutes at 37°C and stopped using urea sample loading buffer and heating at 95°C for 10 minutes. Reaction products were resolved using denaturing urea polyacrylamide gel electrophoresis (S5B Fig). Percentage RT activities represent percentile of band-intensities of polymerized product divided by those of template/primer substrate.

[2] = molecular target: T2, HIV-1 RT (Human immunodeficiency virus type 1 group M subtype B, UniProt P03366); assay: biochemical; type: binding
T2 construct: HIV-1 RT construct, containing p66 and protease coding regions in pT5M plasmid; His-tag (implied by cobalt-resin purification); made in house; host or cells: E. coli BL21(DE3)

[3] = molecular target: T3, FIV RT (fRT) (Feline immunodeficiency virus, UniProt P16088); assay: Microscale thermophoresis (MST) NNRTI binding affinity to wild type FIV RT
T3 construct: The p66 subunit (residues 1–554) was cloned into pET22b; p51 subunit (residues 1–430) in pET28b (kan resistance, Novagen) with a thrombin-cleavable His-tag at the N-terminus; His-tag (thrombin-cleavable) (N, cleaved yes); made in house; host or cells: E. coli ArcticExpress
Method: (§2) RT proteins were labeled with Monolith NT protein labeling kit BLUE-NHS (NanoTemper Technologies) and eluted in microscale thermophoresis (MST) buffer (50 mm Tris-HCl, pH 7.0, 300 mM NaCl and 0.05% Tween-20).

[4] = test system: mutant fRT (FIVm; R133S, K134I, A137E, G138T and R141I in FIV p51); assay: Microscale thermophoresis (MST) NNRTI binding affinity to p51-loop mutant FIV RT; design: species or system feline immunodeficiency virus (FIV); conditions: MST; for binding affinity to mutated fRT as compared to HIV-1 RT: FIVm versus HIV-1 RT
Text: (§3) The two subunits of FIV RT (Petaluma) were subcloned into separate plasmids to facilitate site-specific mutagenesis. […] FIV RT mutant (FIVm) was generated by introducing the specific mutations into the p51 subunit using QuikChange Kit (Agilent Technologies Genomics). HIV-1 RT construct, containing p66 and protease coding regions in pT5M plasmid, was a generous gift of Prof. Stephen H. Hughes (National Cancer Institute- Frederick, MD, USA).
as §2

[5] = molecular target: T4, mutant fRT (FIVm; R133S, K134I, A137E, G138T and R141I in FIV p51) (Feline immunodeficiency virus, UniProt P16088, A293E/G294T/K290I/R289S/R297I); assay: as above
T4 construct: The p66 subunit (residues 1–554) was cloned into pET22b; p51 subunit (residues 1–430) in pET28b (kan resistance, Novagen) with a thrombin-cleavable His-tag at the N-terminus; His-tag (thrombin-cleavable) (N, cleaved yes); made in house; host or cells: E. coli ArcticExpress
Text: as §3, §2

[6] = molecular target: T2, HIV-1 RT; type: biochemical
Method: as §1
Reactions were incubated for 30 minutes at 37°C and stopped using urea sample loading buffer and heating at 95°C for 10 minutes. Reaction products were resolved using denaturing urea polyacrylamide gel electrophoresis (S5B Fig). Percentage RT activities represent percentile of band-intensities of polymerized product divided by those of template/primer substrate.

Compound | effect on DNA polymerization activity of the mutated fRT (in words) [1] | Kd [2] [nM] | binding to fRT (in words) [3] | binding affinity to mutated fRT as compared to HIV-1 RT [4] | Kd [5] [nM] | inhibition of HIV-1 RT DNA polymerization activity (in words) [6] | Kd ([2]; MST, mean ±SD, read-out: Kd, binding to HIV-1 RT) [nM] | Kd ([3]; mean ±SD) [nM] | binding affinity to mutated fRT as compared to fRT ([4]; FIVm versus wild type fRT) | inhibition of HIV-1 RT DNA polymerization activity (in words) ([6]; 0.15 μM RT, 30 minutes at 37°C)
CC(C)Nc1cccnc1N1CCN(C(=O)c2cc3cc(NS(C)(=O)=O)ccc3[nH]2)CC1 [DLV, Delavirdine] | none of the three inhibitors EFZ, DLV or RPV reduced the activity | 617 ± 100 | fail to bind | twice the affinity | 227 ± 71 | potently inhibiting |  |  |  | 
O=C1Nc2ccc(Cl)cc2[C@@](C#CC2CC2)(C(F)(F)F)O1 [EFZ, Efavirenz] | none of the three inhibitors EFZ, DLV or RPV reduced the activity |  | fail to bind | comparable affinities |  |  |  |  |  | 
Cc1cc(/C=C/C#N)cc(C)c1Nc1ccnc(Nc2ccc(C#N)cc2)n1 [RPV, Rilpivirine] | none of the three inhibitors EFZ, DLV or RPV reduced the activity |  | able to bind to fRT with comparable affinity to HIV-1 RT | comparable affinities | 368 ± 60 |  | 539 ± 25 | 796 ± 76 | twice the affinity | potently inhibiting
